This is an account of results in patent US20200038418A1, “METHODS OF TREATING AUTISM SPECTRUM DISORDER USING AMINOSTEROL COMPOSITIONS” (Enterin, Inc., priority 2018, published 2020).

The conditions of data set [1]: single and repeat intravenous administration, alone or in combination; cited from earlier work.
For data set [2] the following is noted: systemic administration, mice; cited from earlier work.
Data set [3] has as its system IPANs (intrinsic primary afferent neuron). Kind of data set: Perfusion of isolated segment of bowel from the PD mouse model. The settings on record: perfusion through the lumen of isolated bowel segment from PD mouse model.
The subject of data set [4] is mice with constipation due to overexpression of human αS. Briefly: Gastrointestinal motility in mouse models of PD. It counts as in vivo.
For data set [5] the following is noted: intravenous administration, prior studies; cited from earlier work.

Consider `CC(C)[C@@H](CC[C@@H](C)[C@H]1CC[C@H]2[C@@H]3[C@H](O)C[C@H]4C[C@@H](NCCCNCCCCN)CC[C@]4(C)[C@H]3CC[C@]12C)OS(=O)(=O)O.C[C@H](O)C(=O)O.C[C@H](O)C(=O)O` [squalamine dilactate salt], for which, in data set [1], the dose well tolerated entry is reported as “at least 300 mg/m^2”.

In the case of `CC(C)[C@@H](CC[C@@H](C)[C@H]1CC[C@H]2[C@@H]3[C@H](O)C[C@H]4C[C@@H](NCCCNCCCCN)CC[C@]4(C)[C@H]3CC[C@]12C)OS(=O)(=O)O` [squalamine], in data set [2], the clearance and excretion entry was “cleared by the liver and excreted as the intact molecule”. In addition, the “effect on IPANs and peristaltic contractions” value in data set [3] is given as “excitation of IPANs”. Also, in data set [4] (orally administered, mice with constipation due to overexpression of human αS), the gastro-intestinal motility result is recorded as “stimulates gastro-intestinal motility”. For the same molecule, the “effect on gastrointestinal dysmotility” value in data set [4] (several mouse models of PD) was “reverse gastrointestinal dysmotility”. Also, the gastrointestinal motility entry in data set [5] is reported as “not associated with increased gastrointestinal motility”.
